Experimental data reported in US8841343B2, “Composition for repelling mosquitoes” (Bio & Hnt, Inc., priority 2006, dated 2014).
Where “and” joins values, the source holds several entries; their conditions need not be identical. Equal entries are not always repeated.

System: Aedes aegypti
Test: Examination of repellent activity using skin test (treated human forearm in cage of about 100 mated female mosquitoes)
Type: in vivo
Details: for Effective repellency duration (hour) (mean ± standard deviation): maximum measurement time 12 hours
Source text: Citronellic acid and geranic acid, which are used in the present invention, are commercially available or can directly be synthesized. In this embodiment, products of Aldrich Co. (product names are respectively Citronellic acid and Geranic acid) were purchased and used as citronellic acid and geranic acid. Purities of the above two compounds were examined using a gas chromatograph (GC) and a gas chromatograph-mass spectrometry (GC-MS). The compounds having purity of 99.5% or greater were only used. Respective ingredients of the above compounds were added to isopropyl alcohol of 91% to make test samples consisting of a solution in the concentration of 0.5 to 50%. The samples were used for mosquito repellent efficacy experiments.
The test samples manufactured as above underwent repellent effective experiments with respect to Aedes which is a main mosquito group attacking human.
In this embodiment, Aedes aegypti was used as test mosquitoes. The Aedes aegypti was supplied from Korea Research Institute of Bioscience and Biotechnology and reared indoor from generation to generation.
The larvae of the Aedes aegypti were reared in a plastic container of 22×14×7 cm containing distilled water with small amount of one-to-one mixture of chicken feed and yeast. Fresh mosquito pupae were transferred into a paper cup containing water and then placed in a transparent rearing cage to emerge as adults. Here, the rearing cage was constructed with metal net. Males and females of the freshly emerged mosquitoes were transferred to a rearing cage at one-to-one ratio, and left for two or three days for mating. The female mosquitoes were then used for repellency tests. Eight percent (8%) sugar water was supplied for the adult mosquitoes. The following rearing conditions were maintained: light condition of 16 h:8 h (day:night), temperature of 27±2° C., and relative humidity of 80±10%.
In order to examine effectiveness of the mosquito repellent of the prepared sample solutions, one (1) ml of a sample solution was uniformly applied, using a metal rod, on a forearm of a volunteer human test subject between wrist and elbow. Thereafter, the arm treated with the test solution was inserted in a bioassay cage, constructed with Plexiglass of 50×50×50 cm containing approximately 100 mated female mosquitoes. The number of mosquitoes trying to bite was recorded for three minutes in every thirty minutes for up to 4 hours or in every hour for up to 12 hours. The time required to get the arm bitten by two cumulative mosquitoes was regarded as effective repellency duration. A net window of 40×40 cm was present at each side and top of the Plexiglass bioassay cage to allow air ventilation. A 15×15 cm hole was prepared at the front side of the Plexiglass bioassay cage and a long net sleeve was attached to the hole so that the test arm could be put into the cage for repellency test.
At the beginning of each repellency test, an arm treated with no solvent was placed in the bioassay cage containing mosquitoes, in order to examine blood feeding activity of the mated female test mosquitoes. The repellency tests with the test solutions were carried out only when the arm was bitten by at least two mosquitoes for initial three minutes.
Repellent activity against Aedes was examined in accordance with the aforementioned method using the samples which respectively contain citronellic acid and geranic acid. Also, mosquito repellent activity was measured with solutions which contain DEET and Picadirin, wherein the DEET and Picadirin are commercially available mosquito repellents which are currently recommended by the Center for Disease Control of the United States.
In Table 4 to Table 6, the repellent efficiency was calculated using the following Equation 1.

[1] = 10% (0.25 mg/cm^3), 120 minutes
[2] = 10% (0.25 mg/cm^3), 150 minutes
[3] = 10% (0.25 mg/cm^3), 180 minutes
[4] = 10% (0.25 mg/cm^3), 210 minutes
[5] = 10% (0.25 mg/cm^3), 240 minutes
[6] = concentration 2% (0.05 mg/cm^3), time until arm bitten by two cumulative mosquitoes
[7] = concentration 10% (0.25 mg/cm^3), time until two cumulative bites, maximum measurement time 240 minutes

Structure (SMILES): CC(C)=CCCC(C)CC(=O)O (racemic) [Citronellic acid, citronellic acid]
- Repellent efficiency (%) per time (minutes) (2% (0.05 mg/cm^3), 30 minutes): 100%
- Repellent efficiency (%) per time (minutes) (2% (0.05 mg/cm^3), 60 minutes): 84.7%
- Repellent efficiency (%) per time (minutes) (2% (0.05 mg/cm^3), 90 minutes): 71.3%
- Repellent efficiency (%) per time (minutes) (2% (0.05 mg/cm^3), 120 minutes): 56.4%
- Repellent efficiency (%) per time (minutes) (2% (0.05 mg/cm^3), 150 minutes): 37.8%
- Repellent efficiency (%) per time (minutes) (2% (0.05 mg/cm^3), 180 minutes): 15.2%
- Repellent efficiency (%) per time (minutes) (2% (0.05 mg/cm^3), 210 minutes): 7.4%
- Repellent efficiency (%) per time (minutes) (2% (0.05 mg/cm^3), 240 minutes): 0%
- Repellent efficiency (%) per time (minutes) (10% (0.25 mg/cm^3), 30 minutes): 100%
- Repellent efficiency (%) per time (minutes) (10% (0.25 mg/cm^3), 60 minutes): 100%
- Repellent efficiency (%) per time (minutes) (10% (0.25 mg/cm^3), 90 minutes): 100%
- Repellent efficiency (%) per time (minutes) [1]: 100%
- Repellent efficiency (%) per time (minutes) [2]: 100%
- Repellent efficiency (%) per time (minutes) [3]: 85.7%
- Repellent efficiency (%) per time (minutes) [4]: 71.4%
- Repellent efficiency (%) per time (minutes) [5]: 57.1%
- Repellent efficiency (%) per time (hours) (15% (0.375 mg/cm^3), 1 hour): 100%
- Repellent efficiency (%) per time (hours) (15% (0.375 mg/cm^3), 2 hours): 75%
- Repellent efficiency (%) per time (hours) (15% (0.375 mg/cm^3), 3 hours): 75%
- Repellent efficiency (%) per time (hours) (15% (0.375 mg/cm^3), 4 hours): 75%
- Repellent efficiency (%) per time (hours) (15% (0.375 mg/cm^3), 5 hours): 50%
- Repellent efficiency (%) per time (hours) (15% (0.375 mg/cm^3), 6 hours): 50%
- Repellent efficiency (%) per time (hours) (15% (0.375 mg/cm^3), 7 hours): 37.5%
- Repellent efficiency (%) per time (hours) (15% (0.375 mg/cm^3), 8 hours): 37.5%
- Repellent efficiency (%) per time (hours) (15% (0.375 mg/cm^3), 9 hours): 25%
- Repellent efficiency (%) per time (hours) (30% (0.75 mg/cm^3), 1 hour): 100%
- Repellent efficiency (%) per time (hours) (30% (0.75 mg/cm^3), 2 hours): 87.5%
- Repellent efficiency (%) per time (hours) (30% (0.75 mg/cm^3), 3 hours): 75%
- Repellent efficiency (%) per time (hours) (30% (0.75 mg/cm^3), 4 hours): 75%
- Repellent efficiency (%) per time (hours) (30% (0.75 mg/cm^3), 5 hours): 75%
- Repellent efficiency (%) per time (hours) (30% (0.75 mg/cm^3), 6 hours): 62.5%
- Repellent efficiency (%) per time (hours) (30% (0.75 mg/cm^3), 7 hours): 62.5%
- Repellent efficiency (%) per time (hours) (30% (0.75 mg/cm^3), 8 hours): 62.5%
- Repellent efficiency (%) per time (hours) (30% (0.75 mg/cm^3), 9 hours): 62.5%
- Repellent efficiency (%) per time (hours) (30% (0.75 mg/cm^3), 10 hours): 50%
- Repellent efficiency (%) per time (hours) (30% (0.75 mg/cm^3), 11 hours): 50%
- Repellent efficiency (%) per time (hours) (30% (0.75 mg/cm^3), 12 hours): 50%
- Repellent efficiency (%) per time (hours) (50% (1.25 mg/cm^3), 1 hour): 100%
- Repellent efficiency (%) per time (hours) (50% (1.25 mg/cm^3), 2 hours): 100%
- Repellent efficiency (%) per time (hours) (50% (1.25 mg/cm^3), 3 hours): 100%
- Repellent efficiency (%) per time (hours) (50% (1.25 mg/cm^3), 4 hours): 100%
- Repellent efficiency (%) per time (hours) (50% (1.25 mg/cm^3), 5 hours): 93.3%
- Repellent efficiency (%) per time (hours) (50% (1.25 mg/cm^3), 6 hours): 86.7%
- Repellent efficiency (%) per time (hours) (50% (1.25 mg/cm^3), 7 hours): 86.7%
- Repellent efficiency (%) per time (hours) (50% (1.25 mg/cm^3), 8 hours): 86.7%
- Repellent efficiency (%) per time (hours) (50% (1.25 mg/cm^3), 9 hours): 80%
- Repellent efficiency (%) per time (hours) (50% (1.25 mg/cm^3), 10 hours): 73.3%
- Repellent efficiency (%) per time (hours) (50% (1.25 mg/cm^3), 11 hours): 73.3%
- Repellent efficiency (%) per time (hours) (50% (1.25 mg/cm^3), 12 hours): 73.3%
- repellency (in words) (at the level of 0.0125 mg/cm^3): did not represent any repellency
- time for which repellent efficiency of 100% was shown (at the level of 0.05 mg/cm^3): 30 min
- time for which repellent efficiency of 100% was shown (at the level of 0.25 mg/cm^3): 150 min
- Effective repellency duration (minute) (mean ± standard deviation) (concentration 0.5% (0.0125 mg/cm^3), time until arm bitten by two cumulative mosquitoes): 0 ± 0 min
- Effective repellency duration (minute) (mean ± standard deviation) [6]: 60 ± 0 min
- Effective repellency duration (minute) (mean ± standard deviation) [7]: 240 ± 0 min
- Effective repellency duration (minute) (mean ± standard deviation) (concentration 10% (0.25 mg/cm^3), time until two cumulative bites, maximum measurement time 240 minutes, listed as citronellic acid): 240 min
- Effective repellency duration (hour) (mean ± standard deviation) (concentration 15% (0.375 mg/cm^3)): 5.7 ± 2.03 h
- Effective repellency duration (hour) (mean ± standard deviation) (concentration 30% (0.75 mg/cm^3)): 9.3 ± 1.76 h
- Effective repellency duration (hour) (mean ± standard deviation) (concentration 30% (0.75 mg/cm^3), listed as citronellic acid): 9.3 h
- Effective repellency duration (hour) (mean ± standard deviation) (concentration 50% (1.25 mg/cm^3)): 9.3 ± 1.76 h
- Effective repellency duration (hour) (mean ± standard deviation) (concentration 50% (1.25 mg/cm^3), listed as citronellic acid): 9.3 h
- repellent efficiency (for 8 hours at the level of 1.25 mg/cm^3): ~90%

Structure (SMILES): CCN(CC)C(=O)c1cccc(C)c1 [DEET, N,N-diethyl-m-toluamide, reference compound]
- Repellent efficiency (%) per time (minutes) (2% (0.05 mg/cm^3), 30 minutes): 100%
- Repellent efficiency (%) per time (minutes) (2% (0.05 mg/cm^3), 60 minutes): 0%
- Repellent efficiency (%) per time (minutes) (2% (0.05 mg/cm^3), 90 minutes): 0%
- Repellent efficiency (%) per time (minutes) (2% (0.05 mg/cm^3), 120 minutes): 0%
- Repellent efficiency (%) per time (minutes) (2% (0.05 mg/cm^3), 150 minutes): 0%
- Repellent efficiency (%) per time (minutes) (2% (0.05 mg/cm^3), 180 minutes): 0%
- Repellent efficiency (%) per time (minutes) (2% (0.05 mg/cm^3), 210 minutes): 0%
- Repellent efficiency (%) per time (minutes) (2% (0.05 mg/cm^3), 240 minutes): 0%
- Repellent efficiency (%) per time (minutes) (10% (0.25 mg/cm^3), 30 minutes): 100%
- Repellent efficiency (%) per time (minutes) (10% (0.25 mg/cm^3), 60 minutes): 100%
- Repellent efficiency (%) per time (minutes) (10% (0.25 mg/cm^3), 90 minutes): 100%
- Repellent efficiency (%) per time (minutes) [1]: 100%
- Repellent efficiency (%) per time (minutes) [2]: 87.5%
- Repellent efficiency (%) per time (minutes) [3]: 81.3%
- Repellent efficiency (%) per time (minutes) [4]: 78.1%
- Repellent efficiency (%) per time (minutes) [5]: 71.9%
- time for which repellent efficiency of 100% was shown (at the level of 0.25 mg/cm^3): 120 min
- Effective repellency duration (minute) (mean ± standard deviation) [6]: 70 min and 70 ± 10.0 min
- Effective repellency duration (minute) (mean ± standard deviation) [7]: 218 min and 218 ± 10.8 min
